Consider 14 compounds from patent US5686486A, “4-hydroxy-benzopyran-2-ones and 4-hydroxy-cycloalkyl[b]pyran-2-ones useful to treat retroviral infections” (priority 1995, dated 1997).

Assay [1] concerns the target T1, HIV-1 protease (Human immunodeficiency virus type 1 group M subtype B, UniProt P04585). As to the kind of experiment: biochemical. Summed up:
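Ki from two-fold serial inhibitor dilutions (24–48 concentrations) with 40 nM HIV-1 protease stock and 200 μM substrate stock, 90 min at room temperature; stopped with avidin beads. Reference inhibitor run in parallel; Ki by nonlinear least-squares fit.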

Assay [2] addresses T1, HIV-1 protease. The assay is described as follows: biochemical. The note with it: for inhibition at 0.123 µM: read-out: HIV-1 Protease % Inhib, dose 0.123 uM; for inhibition at 0.37 µM: read-out: HIV-1 Protease % Inhib, dose 0.370 uM; for inhibition at 1.1 µM: read-out: HIV-1 Protease % Inhib, dose 1.100 uM; for inhibition at 3.3 µM: read-out: HIV-1 Protease % Inhib, dose 3.300 uM; for inhibition at 10 µM: read-out: HIV-1 Protease % Inhib, dose 10.000 uM; for inhibition at 30 µM: read-out: HIV-1 Protease % Inhib, dose 30.000 uM; for inhibition at 100 µM: read-out: HIV-1 Protease % Inhib, dose 100.000 uM. Summed up:
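Biotinylated, FITC-labeled peptide substrate (20 μl of 0.2 μM) incubated with HIV-1 protease (10 μl of 0.1 μM) and compound in 0.1 M sodium acetate pH 5.5, 1.0 M NaCl, 0.05% NP-40, 1 h, room temperature, dark. Streptavidin beads then capture uncleaved substrate; filtered labeled product read by fluorescence, giving percent inhibition.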

SMILES strings stand for the structures. Read-outs that look alike come from different tables or passages of the source.

Consider `CC(C)(C)OC(=O)NCC(=O)Nc1cccc(C(c2c(O)c3c(oc2=O)CCCCCC3)C2CC2)c1` (single isomer, unassigned) [Example 239, Carbamic acid, [2-[[3-(R or S)-[cyclopropyl(5,6,7,8,9,10)-hexahydro-4-hydroxy-2-oxo-2H-cycloocta[b]pyran-3-yl)methyl]phenyl]amino]-2-oxoethyl]-, 1,1-dimethyl ethyl ester], for which the Ki in assay [1] (read-out: HIV-1 FITC KI) worked out at 0.0022 µM. Further, the “HIV-1 Protease % Inhib” value in assay [2] (dose 0.123 uM) is recorded as 69.55%; in assay [2] (dose 0.370 uM), 88.01%; in assay [2] (dose 1.100 uM), 98.34%; in assay [2] (dose 3.300 uM), 102.72%; in assay [2] (dose 10.000 uM), 107.4%; in assay [2] (dose 30.000 uM), 100.72%.
In the case of `O=c1oc2c(c(O)c1C(c1cccc(NS(=O)(=O)c3cccc4nsnc34)c1)C1CC1)CCCCCC2` (stereo not drawn) [Example 340, N-[3-[Cyclopropyl(5,6,7,8,9,10-hexahydro-4-hydroxy-2-oxo-2H-cycloocta[b]pyran-3-yl)methyl]phenyl]-2,1,3-benzothiadiazole-4-sulfonamide], the Ki in assay [1] (read-out: HIV-1 FITC KI) came to 0.0019 µM. Further, in assay [2], the inhibition at 0.123 µM is 77.8%, the inhibition at 0.37 µM stood at 93.2%, the inhibition at 1.1 µM was 90.9% and the inhibition at 3.3 µM stood at 96.5%. Further, in assay [2], the inhibition at 10 µM came to 101% and the inhibition at 30 µM is 96.5%.
As for `CC(C)(C)OC(=O)N[C@@H](Cc1c[nH]cn1)C(=O)Nc1cccc(C(c2c(O)c3c(oc2=O)CCCCCC3)C2CC2)c1` (stereo partly drawn) [Example 213, Carbamic acid, [2-[[3-[cyclopropyl(5,6,7,8,9,10-hexahydro-4-hydroxy-2-oxo-2H-cycloocta[b]pyran-3-yl)methyl]phenyl]amino]-1-(S)-(1H-imidazol-4-ylmethyl)-2-oxoethyl]-, 1,1-dimethylethyl ester], the Ki in assay [1] (read-out: HIV-1 FITC KI) turned out to be 0.0035 µM. Also, in assay [2] (dose 0.123 uM), the “HIV-1 Protease % Inhib” value stood at 74.4%. In assay [2], the inhibition at 0.37 µM was found to be 82.2%, the inhibition at 1.1 µM worked out at 94.5%, the inhibition at 3.3 µM was found to be 102% and the inhibition at 10 µM worked out at 109%. The inhibition at 30 µM in assay [2] was determined as 99.3%.
As for `I.O=c1oc2c(c(O)c1C(c1cccc(NS(=O)(=O)CCCN3CCOCC3)c1)C1CC1)CCCCCC2` (stereo not drawn) [Example 365B (Third Title Compound), N-[3-[Cyclopropyl(5,6,7,8,9,10-hexahydro-4-hydroxy-2-oxo-2H-cycloocta[b]pyran-3-yl)methyl]phenyl]-4-morpholinepropanesulfonamide hydrogen iodide salt], the Ki in assay [1] (read-out: HIV-1 FITC KI) was 0.0143 µM. The “HIV-1 Protease % Inhib” value in assay [2] (dose 0.123 uM) is given as 29.06%; in assay [2] (dose 0.370 uM) it was 56.47%; in assay [2] (dose 1.100 uM), 93.46%; in assay [2] (dose 3.300 uM) it was 90.63%; in assay [2] (dose 10.000 uM) it was 90.94%; in assay [2] (dose 30.000 uM) it was 85.31%.
Consider `O=c1oc2ccccc2c(O)c1C(Cc1ccccc1)Cc1ccccc1` [Example 146, 3-(1-Benzyl-2-phenyl-ethyl)4-hydroxy-chromen-2-one], for which the affinity in assay [1] (HIV-1 FITC KI) corresponds to a Ki of 0.13 µM. For the same compound, the inhibition at 1 µM in assay [2] (read-out: HIV-1 Protease % Inhib, dose 1.000 uM) was determined as 54.4%. Also, in assay [2], the inhibition at 10 µM was found to be 92.7% and the inhibition at 100 µM was 98.6%.
Consider `O=c1oc2c(c(O)c1[C@H](c1cccc(NS(=O)(=O)c3cccc4cccnc34)c1)C1CC1)CCCCCC2` [Example 256, (-)-N-[3-[Cyclopropyl(5,6,7,8,9,10-hexahydro-4-hydroxy-2-oxo-2H-cycloocta[b]pyran-3-yl)methyl]phenyl]-8-quinolinesulfonamide], for which, in assay [1] (read-out: HIV-1 FITC KI), the Ki came to 0.00042 µM. Besides, in assay [2], the inhibition at 0.123 µM stood at 82.5%, the inhibition at 0.37 µM amounted to 91.3%, the inhibition at 1.1 µM was found to be 99% and the inhibition at 3.3 µM turned out to be 95%. Further, in assay [2], the inhibition at 10 µM was 101% and the inhibition at 30 µM is 96.1%.
Consider `CN(C)c1ccc(S(=O)(=O)Nc2cccc(C(c3c(O)c4c(oc3=O)CCCCCC4)C3CC3)c2)cc1` (stereo not drawn) [Example 352, N-[3-[Cyclopropyl(5,6,7,8,9,10-hexahydro-4-hydroxy-2-oxo-2H-cycloocta[b]pyran-3-yl)methyl]phenyl]-4-(dimethylamino)-benzenesulfonamide], for which the Ki in assay [1] (read-out: HIV-1 FITC KI) came to 0.00284 µM. For the same compound, in assay [2], the inhibition at 0.123 µM was found to be 49.7%, the inhibition at 0.37 µM stood at 78.5%, the inhibition at 1.1 µM amounted to 97.9% and the inhibition at 3.3 µM is 104%. Also, in assay [2], the inhibition at 10 µM is 102% and the inhibition at 30 µM came to 94.6%.
Turning to `O=C(CCn1ccc2ccccc21)Nc1cccc(C(c2c(O)c3c(oc2=O)CCCCC3)C2CC2)c1` (stereo not drawn) [Example 215, 1H-Indole-1-propanamide, N-[3-[cyclopropyl(2,5,6,7,8,9-hexahydro-4-hydroxy-2-oxocyclohepta[b]pyran-3-yl)methyl]phenyl]-], the inhibition constant (Ki) in assay [1] (read-out: HIV-1 FITC KI) amounted to 0.0278 µM. For the same compound, in assay [2], the inhibition at 0.123 µM worked out at 13.5%, the inhibition at 0.37 µM is 43.3%, the inhibition at 1.1 µM came out at 76.1% and the inhibition at 3.3 µM amounted to 97.9%. In assay [2], the inhibition at 10 µM worked out at 107% and the inhibition at 30 µM worked out at 98.5%.
In the case of `Cc1ccc(S(=O)(=O)n2cncc2C[C@H](NC(=O)OC(C)(C)C)C(=O)Nc2cccc(C(c3c(O)c4c(oc3=O)CCCCCC4)C3CC3)c2)cc1` (stereo partly drawn) [Example 199, Carbamic acid, [2-[[3-[cyclopropyl(5,6,7,8,9,10-hexahydro-4-hydroxy-2-oxo-2H-cycloocta[b]pyran-3-yl)methyl]phenyl]amino]-1-[[1-(S)-[(4-methylphenyl)sulfonyl]-1H-imidazol-5-yl]methyl]-2-oxoethyl]-, 1,1-dimethylethyl ester], the inhibition constant Ki in assay [1] (read-out: HIV-1 FITC KI) was 0.0104 µM. In addition, in assay [2], the inhibition at 0.123 µM came out at 56%, the inhibition at 0.37 µM was found to be 86.5%, the inhibition at 1.1 µM came to 97.6% and the inhibition at 3.3 µM was 106%. In addition, in assay [2], the inhibition at 10 µM turned out to be 114% and the inhibition at 30 µM came out at 107%.
Take `O=c1oc2c(c(O)c1C(c1cccc(S(=O)(=O)Nc3ccccc3)c1)C1CC1)CCCCCC2` (stereo not drawn) [Example 400, N-Phenyl-3-[cyclopropyl(5,6,7,8,9, 10-hexahydro-4-hydroxy-2-oxo-2H-cycloocta[b]pyran-3-yl)methyl]-benzenesulfonamide]: the Ki in assay [1] (read-out: HIV-1 FITC KI) is 0.0358 µM. Besides, in assay [2], the inhibition at 0.123 µM was determined as 17.4%, the inhibition at 0.37 µM stood at 54.8%, the inhibition at 1.1 µM is 78.7% and the inhibition at 3.3 µM turned out to be 94.7%. In assay [2], the inhibition at 10 µM was 114% and the inhibition at 30 µM was 109%.
As to `CC(C)CCC1CCCCc2c1oc(=O)c(C(c1ccccc1)C1CC1)c2O` (stereo not drawn) [Example 184, 3-(Cyclopropylphenylmethyl)-6,7,8,9-tetrahydro4-hydroxy-9-(3-methylbutyl)-cyclohepta[b]pyran-2(5H)-one], in assay [1] (read-out: HIV-1 FITC KI), the Ki amounted to 0.046 µM. In addition, in assay [2], the inhibition at 0.37 µM is 18%, the inhibition at 1.1 µM is 60.7%, the inhibition at 3.3 µM stood at 86% and the inhibition at 10 µM came out at 96.5%. In addition, the inhibition at 30 µM in assay [2] was found to be 93.1%.
`CCC(c1cccc(NC(=O)CCNC(=O)OC(C)(C)C)c1)c1c(O)c2c(oc1=O)CCCCCC2` (stereo not drawn) [Example 219, Carbamic acid, [3-[[3-[1-(5,6,7,8,9,10-hexahydro4-hydroxy-2-oxo-2H-cycloocta[b]pyran-3-yl)propyl]phenyl]amino]-3-oxopropyl]-, 1,1-dimethylethyl ester]: the Ki in assay [1] (read-out: HIV-1 FITC KI) turned out to be 0.0104 µM. Moreover, in assay [2], the inhibition at 0.123 µM came to 52.1%, the inhibition at 0.37 µM was determined as 81%, the inhibition at 1.1 µM was determined as 92.5% and the inhibition at 3.3 µM is 100%. Besides, in assay [2], the inhibition at 10 µM stood at 109% and the inhibition at 30 µM was 97.3%.
Take `CCCC(=O)Nc1cccc(C(c2c(O)c3c(oc2=O)CCCCCC3)C2CC2)c1` (stereo not drawn) [Example 209, N-[3-[Cyclopropyl(5,6,7,8,9,10-hexahydro-4-hydroxy-2-oxo-2H-cycloocta[b]pyran-3-yl)methyl]phenyl]-butanamide]: the inhibition constant Ki in assay [1] (read-out: HIV-1 FITC KI) was 0.0241 µM. In assay [2], the inhibition at 0.37 µM was 43.2%, the inhibition at 1.1 µM was 80%, the inhibition at 3.3 µM stood at 96% and the inhibition at 10 µM was determined as 104%. Moreover, the inhibition at 30 µM in assay [2] came out at 100%.
On to `C=CCCC1CCCCc2c1oc(=O)c(C(c1ccccc1)C1CC1)c2O` (stereo not drawn) [Example 135, 9-But-3-enyl-3-(cyclopropyl-phenyl-methyl)4-hydroxy-6,7,8,9-tetrahydro-5H-cyclohepta[b]pyran-2-one], for which the inhibition constant Ki in assay [1] (read-out: HIV-1 FITC KI) is 0.03 µM. Further, in assay [2] (read-out: HIV-1 Protease % Inhib, dose 0.410 uM), the inhibition at 0.41 µM stood at 87.1%. In assay [2] (read-out: HIV-1 Protease % Inhib, dose 1.230 uM), the inhibition at 1.23 µM stood at 92.5%. For the same compound, the inhibition at 3.7 µM in assay [2] (read-out: HIV-1 Protease % Inhib, dose 3.700 uM) is 96.7%. Moreover, the inhibition at 11 µM in assay [2] (read-out: HIV-1 Protease % Inhib, dose 11.000 uM) worked out at 82.4%. For the same compound, the inhibition at 33 µM in assay [2] (read-out: HIV-1 Protease % Inhib, dose 33.000 uM) worked out at 71.2%. Further, in assay [2], the inhibition at 100 µM amounted to 63.6%.
